Measured values reported in patent publication US9855345B2, “Method for producing lipoplex for topical administration and antitumor agent using such lipoplex” (DELTA-FLY PHARMA, INC., priority 2014, dated 2018).
“Also recorded” adds a separate entry of the source.

Tests used:
[1] = tested on: Luciferase-expressing human pancreatic cancer cells PANC-1; experiment: Therapeutic effect on peritoneal dissemination of pancreatic cancer (IVIS luciferase activity, survival); assay type: in vivo, BALB/c nu/nu mice; settings: PANC-1-luc model, lipoplex i.p. 20 μg TS-shRNA/mouse, Paclitaxel i.p. 10 mg/kg, days 8, 11, 14, 17, IVIS days 7-25
Experimental: The therapeutic effects of the TS-shRNA-carrying lipoplex (i.e., novel preparation (2)) prepared in the same manner as in Example 1 on peritoneal dissemination of pancreatic cancer were evaluated.
Luciferase-expressing human pancreatic cancer cells PANC-1 (PANC-1-luc, Pharmaron) were cultured and transplanted intraperitoneally into BALB/c nu/nu mice (6- to 8-week-old, female, Beijing HFK Bio-Technology Co., Ltd.) at 1.0×10^7 cells/mouse to prepare mouse models for peritoneal dissemination of PANC-1-luc.
In Example 7, the lipoplex (novel preparation (2)), Paclitaxel (Taxol, Pharmaron), or the lipoplex (novel preparation (2)) in combination with Paclitaxel was administered to different mouse models. A 9% sucrose solution was administered to the control group.
The lipoplex (novel preparation (2)) was administered intraperitoneally to mouse models in such a manner that 20 μg of TS-shRNA would be administered to each mouse per day, and such administration was carried out four times in total (i.e., 8, 11, 14, and 17 days after the cell transplantation). Paclitaxel was administered intraperitoneally to the relevant group of mouse models four times in total (i.e., 8, 11, 14, and 17 days after the cell transplantation) at 10 mg/kg. […]

[2] = TS-shRNA concentration in ascites and blood by RT-PCR after intraperitoneal lipoplex administration; assay type: in vivo, BALB/c nu/nu mice; settings: after i.p. administration of lipoplex (novel preparation (2)), ovarian cancer peritoneal metastasis mouse model

| Compound | increase in luciferase activity (tumor growth in the abdominal cavity) compared with the control group [1] | half-life of TS-shRNA in the ascites [2] | leakage of TS-shRNA into the blood [2] |
| --- | --- | --- | --- |
| CC(=O)O[C@H]1C(=O)[C@@]2(C)[C@H]([C@H](OC(=O)c3ccccc3)[C@]3(O)C[C@H](OC(=O)[C@H](O)[C@@H](NC(=O)c4ccccc4)c4ccccc4)C(C)=C1C3(C)C)[C@]1(OC(C)=O)CO[C@@H]1C[C@@H]2O [Paclitaxel] | suppressed; also recorded: strong tumor suppression effects | – | – |
| TS-shRNA: TS-targeting shRNA, SEQ ID NO: 8, 5′-GUAACACCAUCGAUCAUGAUAGUGCUCCUGGUUGUCAUGAUCGAUGGUGUUACUU-3′ (shRNA hairpin in lipoplex, chemistry not given here) | – | approximately 8 hours | had not leaked |
